According to patent publication US20080206761A1, “Ex Vivo Gene Expression in Whole Blood as a Model of Assessment of Individual Variation to Dietary Supplements” (priority 2005, published 2008):

Experiments:
Format in all cases: cell-based, human
IL-4 mRNA = assay: PHA-induced IL-4 mRNA expression in heparinized whole blood ex vivo; conditions: for ΔΔCt (mean ± standard deviation, n = 3), IL-4 mRNA: supplement 30 min, then 100 μg/mL PHA 2 h, concentrations per footnote; for effect on PHA-induced IL-4 expression, in words: summary over 7 subjects of Table I
Experimental: (§1) In this embodiment, phytohemagglutinin-induced gene expression of interleukin-2 (IL-2), interleukin-4 (IL-4), and tumor necrosis factor-α (TNF-α) were quantitated in the following manner. Fifty μL of heparinized whole blood was incubated with various dietary supplements for a period of 30 minutes. The following supplements were employed: vitamins A, C, and D, epigallocatechin gallate (from green tea), genistein (from soy), and curcumin (from the spice turmeric). Vitamin A is known to stimulate the immune system. […] Vitamin D appears to have protective effects against certain cancers. Epigallocatechin gallate is a powerful antioxidant, appears to reduce the multidrug resistance found in cancer cells, and preferentially induces apoptosis in neoplastic cells. Genistein has been found in some studies to have anticarcinogenic activity; possible mechanisms of action include upregulation of apoptosis, inhibition of angiogenesis, inhibition of DNA topoisomerase II and inhibition of protein tyrosine kinases. Curcumin has proapoptotic effects in neoplastic cells and interferes with the activity of the transcription factor NF-κB, which is often highly overexpressed in such cells.
(§2) After incubation with the dietary supplement, 100 μg/mL phytohemagglutinin (PHA) was added and incubation was continued for an additional 2 hours at 37° C. The concentration of each dietary supplement (see Table I, note) was slightly higher than reported blood levels. Then mRNA was purified, cDNA was synthesized, and the levels of IL-2, IL-4, and TNF-α were quantitated by TaqMan real time polymerase chain reaction (PCR) (see Holland, et al., “Detection of specific polymerase chain reaction product by utilizing the 5′ to 3′ exonuclease activity of Thermus aquaticus DNA polymerase,” Proc Natl Acad Sci USA 1991; 88: 7276-80), as described below.
(§3) The mRNA and cDNA were prepared from the whole blood that was exposed to the dietary components, as well as the whole blood which remained unexposed. In brief, home-made 96-well filterplates were placed over collection plates, and 150 μl 5 mM Tris, pH 7.4, was applied. Following centrifugation at 120×g for 1 min at 4° C., 50 μl of blood samples were applied to each well and immediately centrifuged at 120×g for 2 min at 4° C., followed by washing of each well with 300 μl PBS once with centrifugation at 2000×g for 5 min at 4° C. Then, 60 μl stock lysis buffer, containing for example 0.5% N-Lauroylsarcosine, 4×SSC, 10 mM Tris HCl, pH 7.4, 1 mM EDTA, 0.1% IGEPAL CA-630, and 1.791 M guanidine thiocyanate, supplemented with 1% 2-mercaptoethanol (Bio Rad, Hercules, Calif., USA), 0.5 mg/ml proteinase K (Pierce, Rockford, Ill., USA), 0.1 mg/ml salmon sperm DNA (5 Prime Eppendorf/Brinkmann, Westbury, N.Y., USA), 0.1 mg/ml E. coli tRNA (Sigma), a cocktail of 10 mM each of the specific reverse primers shown in Table 2, and standard RNA34 oligonucleotides, were applied to the filterplates, followed by incubation at 37° C. for 10 min. The filterplates were then placed over oligo(dT)-immobilized microplates (GenePlate, RNAture), and centrifuged at 2000×g for 5 min at 4° C. Following overnight storage at 4° C., the microplates were washed with 100 μl plain lysis buffer 3 times, followed by 150 μl of wash buffer (0.5 M NaCl, 10 mM Tris, pH 7.4, 1 mM EDTA) 3 times at 4° C. The cDNA was directly synthesized in each well by adding 30 μl of buffer containing 1×RT-buffer, 1.25 mM each of dNTP, 4 units rRNasin, and 80 units of MMLV reverse transcriptase (Promega) (without primers), and incubation at 37° C. for 2 hours. The specific primer-primed cDNA existed in solution, and oligo(dT)-primed cDNA stayed immobilized in the microplate. […]

TNF-α mRNA = assay: PHA-induced TNF-α mRNA expression in heparinized whole blood ex vivo; conditions: for ΔΔCt (mean ± standard deviation, n = 3), TNFα mRNA: supplement 30 min, then 100 μg/mL PHA 2 h, concentrations per footnote; for effect on PHA-induced TNF-α expression, in words: summary over 7 subjects of Table I
Experimental: as §1, §2, §3

IL-2 mRNA = assay: PHA-induced IL-2 mRNA expression in heparinized whole blood ex vivo; conditions: for ΔΔCt (mean ± standard deviation, n = 3), IL-2 mRNA: supplement 30 min, concentrations per footnote; for effect on PHA-induced IL-2 expression, in words: summary over 7 subjects of Table I
Experimental: as §1, §2, §3

[1] = system: CD32A mRNA (IgG Fc receptor); assay: CD32A mRNA level in leukocytes after exposure of whole blood to dietary components (no stimulating agent); conditions: one individual; 3 hours at 37° C.; PBS control
Experimental: In brief, home-made 96-well filterplates were placed over collection plates, and 150 μl 5 mM Tris, pH 7.4, was applied. Following centrifugation at 120×g for 1 min at 4° C., 50 μl of blood samples were applied to each well and immediately centrifuged at 120×g for 2 min at 4° C., followed by washing of each well with 300 μl PBS once with centrifugation at 2000×g for 5 min at 4° C. […] The filterplates were then placed over oligo(dT)-immobilized microplates (GenePlate, RNAture), and centrifuged at 2000×g for 5 min at 4° C. Following overnight storage at 4° C., the microplates were washed with 100 μl plain lysis buffer 3 times, followed by 150 μl of wash buffer (0.5 M NaCl, 10 mM Tris, pH 7.4, 1 mM EDTA) 3 times at 4° C. […] The specific primer-primed cDNA existed in solution, and oligo(dT)-primed cDNA stayed immobilized in the microplate. […] Each gene was amplified in separate wells. The Ct was determined by analytical software (SDS, ABI).

[2] = Subject 1, then 100 μg/mL PHA 2 h 37° C., negative = increased expression
[3] = Subject 2, then 100 μg/mL PHA 2 h
[4] = Subject 3, then 100 μg/mL PHA 2 h
[5] = Subject 4, then 100 μg/mL PHA 2 h
[6] = Subject 5, then 100 μg/mL PHA 2 h
[7] = Subject 6, then 100 μg/mL PHA 2 h
[8] = Subject 7, then 100 μg/mL PHA 2 h

Compound | ΔΔCt (mean ± standard deviation, n = 3), IL-4 mRNA (IL-4 mRNA; Subject 1) | ΔΔCt (mean ± standard deviation, n = 3), IL-4 mRNA (IL-4 mRNA; Subject 2) | ΔΔCt (mean ± standard deviation, n = 3), IL-4 mRNA (IL-4 mRNA; Subject 3) | ΔΔCt (mean ± standard deviation, n = 3), IL-4 mRNA (IL-4 mRNA; Subject 4) | ΔΔCt (mean ± standard deviation, n = 3), IL-4 mRNA (IL-4 mRNA; Subject 5) | ΔΔCt (mean ± standard deviation, n = 3), IL-4 mRNA (IL-4 mRNA; Subject 6) | ΔΔCt (mean ± standard deviation, n = 3), IL-4 mRNA (IL-4 mRNA; Subject 7) | effect on PHA-induced IL-4 expression, in words (IL-4 mRNA) | ΔΔCt (mean ± standard deviation, n = 3), TNFα mRNA (TNF-α mRNA; Subject 1) | ΔΔCt (mean ± standard deviation, n = 3), TNFα mRNA (TNF-α mRNA; Subject 2) | ΔΔCt (mean ± standard deviation, n = 3), TNFα mRNA (TNF-α mRNA; Subject 3) | ΔΔCt (mean ± standard deviation, n = 3), TNFα mRNA (TNF-α mRNA; Subject 4) | ΔΔCt (mean ± standard deviation, n = 3), TNFα mRNA (TNF-α mRNA; Subject 5) | ΔΔCt (mean ± standard deviation, n = 3), TNFα mRNA (TNF-α mRNA; Subject 6) | ΔΔCt (mean ± standard deviation, n = 3), TNFα mRNA (TNF-α mRNA; Subject 7) | ΔΔCt (mean ± standard deviation, n = 3), IL-2 mRNA (IL-2 mRNA; [2]) | ΔΔCt (mean ± standard deviation, n = 3), IL-2 mRNA (IL-2 mRNA; [3]) | ΔΔCt (mean ± standard deviation, n = 3), IL-2 mRNA (IL-2 mRNA; [4]) | ΔΔCt (mean ± standard deviation, n = 3), IL-2 mRNA (IL-2 mRNA; [5]) | ΔΔCt (mean ± standard deviation, n = 3), IL-2 mRNA (IL-2 mRNA; [6]) | further results
O=C(O[C@@H]1Cc2c(O)cc(O)cc2O[C@@H]1c1cc(O)c(O)c(O)c1)c1cc(O)c(O)c(O)c1 [EGCG, epigallocatechin gallate] | −1.83 ± 0.20 | −1.56 ± 0.46 | −0.82 ± 0.34 | 0.92 ± 0.25 | −1.37 ± 0.3 | −0.9 ± 0.01 | −1.47 ± 0.41 | enhanced PHA-induced IL-4 expression in all 7 cases | −1.14 ± 0.32 | −0.63 ± 0.66 | 0.33 ± 0.62 | −0.16 ± 0.12 | −1.22 ± 0.29 | −0.66 ± 0.14 | −0.94 ± 0.46 | −0.1 ± 0.02 | −0.67 ± 0.48 | 1.32 ± 0.54 | 0.81 ± 0.11 | −0.99 ± 0.33 | effect on PHA-induced TNF-α expression, in words (TNF-α mRNA): showed individual variations; ΔΔCt (mean ± standard deviation, n = 3), IL-2 mRNA (IL-2 mRNA; [7]): 1.1 ± 0.14; ΔΔCt (mean ± standard deviation, n = 3), IL-2 mRNA (IL-2 mRNA; [8]): −0.41 ± 0.29; effect on PHA-induced IL-2 expression, in words (IL-2 mRNA): 3 out of 7 persons showed decreases, 1 showed an increase, and 3 were unchanged; conclusion from CD32A mRNA levels (FIG. 2), in words [1]: would be suitable for use in this individual in a diet optimized for anti-cancer activity
O=C1O[C@H]([C@@H](O)CO)C(O)=C1O [VC, vitamin C] | −2.20 ± 0.72 | −0.86 ± 0.62 | −0.77 ± 0.40 | −0.43 ± 0.17 | −1.22 ± 0.17 | −0.77 ± 0.09 | −1.30 ± 0.22 | enhanced IL-4 expression, with 1-3 exceptions | −1.82 ± 0.65 | 0.10 ± 1.14 | −0.04 ± 0.27 | 0.09 ± 0.16 | −1.21 ± 0.14 | −0.48 ± 0.04 | −0.40 ± 0.15 | −0.18 ± 0.54 | 0.00 ± 0.60 | 1.04 ± 0.21 | 1.47 ± 0.19 | −0.80 ± 0.13 | ΔΔCt (mean ± standard deviation, n = 3), IL-2 mRNA (IL-2 mRNA; [7]): 1.02 ± 0.05; ΔΔCt (mean ± standard deviation, n = 3), IL-2 mRNA (IL-2 mRNA; [8]): 0.07 ± 0.27
vitamin D [VD] | −0.17 ± 1.0 | 0.06 ± 0.15 | −0.77 ± 0.40 | −0.43 ± 0.17 | −1.22 ± 0.17 | −0.77 ± 0.09 | −1.30 ± 0.22 | enhanced IL-4 expression, with 1-3 exceptions | −0.25 ± 1.47 | 0.14 ± 0.40 | −0.04 ± 0.27 | 0.09 ± 0.16 | −1.21 ± 0.14 | −0.48 ± 0.04 | −0.40 ± 0.15 | −0.13 ± 0.07 | 0.06 ± 0.40 | 0.00 ± 0.15 | −0.31 ± 0.30 | −0.45 ± 0.61 | ΔΔCt (mean ± standard deviation, n = 3), IL-2 mRNA (IL-2 mRNA; [7]): −0.55 ± 0.14; ΔΔCt (mean ± standard deviation, n = 3), IL-2 mRNA (IL-2 mRNA; [8]): −0.86 ± 0.12; conclusion from CD32A mRNA levels (FIG. 2), in words [1]: would be suitable for use in this individual in a diet optimized for anti-cancer activity
COc1cc(/C=C/C(=O)CC(=O)/C=C/c2ccc(O)c(OC)c2)ccc1O [Cur., curcumin] | 1.27 ± 0.78 | 3.09 ± 0.15 | −0.01 ± 0.07 | 0.10 ± 0.27 | 0.00 ± 0.20 | 0.10 ± 0.13 | 0.52 ± 0.26 | significantly decreased IL-2, IL-4, and TNF-α expression in 2 cases | 3.52 ± 1.84 | 3.64 ± 2.26 | 0.83 ± 0.60 | 0.45 ± 0.15 | 0.13 ± 0.17 | 0.07 ± 0.01 | 0.12 ± 0.21 | 1.47 ± 0.59 | 2.51 ± 0.23 | 0.31 ± 0.14 | 0.33 ± 0.27 | 0.03 ± 0.20 | effect on PHA-induced TNF-α expression, in words (TNF-α mRNA): significantly decreased IL-2, IL-4, and TNF-α expression in 2 cases; ΔΔCt (mean ± standard deviation, n = 3), IL-2 mRNA (IL-2 mRNA; [7]): 0.01 ± 0.14; ΔΔCt (mean ± standard deviation, n = 3), IL-2 mRNA (IL-2 mRNA; [8]): −0.01 ± 0.21; effect on PHA-induced IL-2 expression, in words (IL-2 mRNA): significantly decreased IL-2, IL-4, and TNF-α expression in 2 cases
CCCCC/C=C\C/C=C\C/C=C\CCCCC(=O)O [γ-linoleic acid, γ-linoleic acids] |  |  |  |  |  |  |  |  |  |  |  |  |  |  |  |  |  |  |  |  | conclusion from CD32A mRNA levels (FIG. 2), in words [1]: would be suitable for use in this individual in a diet optimized for anti-cancer activity
vitamin E |  |  |  |  |  |  |  |  |  |  |  |  |  |  |  |  |  |  |  |  | conclusion from CD32A mRNA levels (FIG. 2), in words [1]: would be suitable for use in this individual in a diet optimized for anti-cancer activity
